# Legend:
# mouse [1] = settings: Carcinogenicity, cd1, Oral, Feed, dose end: 18 month, group: systemic
# rat [2] = settings: Subchronic oral toxicity in rodents, sprague dawley, Feed, dose end: 90 day, group: systemic, systemic / clinical chemistry / cytochrome p450, nos / cytochrome p450, nos + systemic / in life observation / body weight / body weight …
# dog [3] = settings: Subchronic oral toxicity in nonrodent, beagle, Feed, dose end: 90 day, group: systemic, systemic / hematology / erythrocyte (rbc) count differential / erythrocyte (rbc) + systemic / hematology / hematocrit (hct) / hematocrit (…
# rat [4] = settings: Prenatal developmental toxicity study, sprague dawley, Oral, Gavage/Intubation, dose end: 16 GD
# rabbit = settings: Prenatal developmental toxicity study, other, Oral, Gavage/Intubation, dose end: 19 GD
# mouse [5] = settings: Subchronic oral toxicity in rodents, cd1, Feed, dose end: 90 day, group: systemic, systemic / organ weight / liver / absolute + systemic / organ weight / liver / relative to body weight + systemic / organ weight / liver / …
# dog [6] = settings: Chronic toxicity, beagle, Oral, Feed, dose end: 52 week, group: systemic
# rat [7] = settings: Combined chronic toxicity/carcinogenicity, sprague dawley, Oral, Feed, dose end: 23 month, group: systemic
# rat [8] = settings: Multigenerational reproductive toxicity study, other, Oral, Feed, dose end: 2 generation
# [9] = systemic / pathology microscopic / liver / adenoma
# [10] = systemic / pathology microscopic / liver / adenoma + systemic / hematology / platelet / platelet + systemic / in life observation / body …
# [11] = group: developmental, developmental / developmental malformation / bone / delayed ossification + developmental / developmental malformation / bone / short
# [12] = group: maternal, systemic / in life observation / clinical signs / salivation
# [13] = group: maternal, systemic / in life observation / clinical signs / salivation + systemic / in life observation / body weight / body weight gain + systemic / …
# [14] = group: developmental, systemic / in life observation / body weight / fetal weight
# [15] = group: maternal, reproductive / reproductive performance / resorptions / resorptions + systemic / in life observation / body weight / body weight gain + …
# [16] = systemic / in life observation / body weight / body weight gain + systemic / organ weight / thyroid gland / absolute + systemic / organ …
# [17] = systemic / in life observation / clinical signs / salivation
# [18] = systemic / hematology / erythrocyte (rbc) count differential / erythrocyte (rbc) + systemic / hematology / hematocrit (hct) / hematocrit (…
# [19] = group: offspring, systemic / in life observation / body weight / offspring (pup) weight + systemic / in life observation / body weight / offspring (pup) …
# [20] = group: parental, systemic / in life observation / body weight / body weight + systemic / in life observation / body weight / body weight gain + systemic / in…
compound,measurement,setting,value
COc1cc(OC)nc(Sc2cccc(Cl)c2C(=O)[O-])n1.[Na+] [Pyrithiobac-sodium],LEL,mouse [1]; [9],21.4 mg/kg/day
same,LOAEL,mouse [1]; [9],21.4 mg/kg/day
same,NEL,mouse [1]; [10],1.43 mg/kg/day
same,NOAEL,mouse [1]; [10],1.43 mg/kg/day
same,LEL,rat [2],31.8 mg/kg/day
same,LOAEL,rat [2],31.8 mg/kg/day
same,NEL,rat [2],3.25 mg/kg/day
same,NOAEL,rat [2],3.25 mg/kg/day
same,LEL,dog [3],626 mg/kg/day
same,LOAEL,dog [3],626 mg/kg/day
same,NEL,dog [3],165 mg/kg/day
same,NOAEL,dog [3],165 mg/kg/day
same,LEL,rat [4]; [11],1800 mg/kg/day
same,LOAEL,rat [4]; [11],1800 mg/kg/day
same,NEL,rat [4]; [11],600 mg/kg/day
same,NOAEL,rat [4]; [11],600 mg/kg/day
same,LEL,rat [4]; [12],200 mg/kg/day
same,LOAEL,rat [4]; [12],200 mg/kg/day
same,NEL,rat [4]; [13],30 mg/kg/day
same,NOAEL,rat [4]; [13],30 mg/kg/day
same,LEL,rabbit; [14],1000 mg/kg/day
same,LOAEL,rabbit; [14],1000 mg/kg/day
same,NEL,rabbit; [14],300 mg/kg/day
same,NOAEL,rabbit; [14],300 mg/kg/day
same,LEL,rabbit; [15],1000 mg/kg/day
same,LOAEL,rabbit; [15],1000 mg/kg/day
same,NEL,rabbit; [15],300 mg/kg/day
same,NOAEL,rabbit; [15],300 mg/kg/day
same,LEL,mouse [5],263 mg/kg/day
same,LOAEL,mouse [5],263 mg/kg/day
same,NEL,mouse [5],83.1 mg/kg/day
same,NOAEL,mouse [5],83.1 mg/kg/day
same,LOAEL,dog [6]; [16],580 mg/kg/day
same,NOAEL,dog [6]; [16],143 mg/kg/day
same,LEL,dog [6]; [17],2.8 mg/kg/day
same,NEL,dog [6]; [17],< 2.8 mg/kg/day
same,LEL,rat [7]; systemic / clinical chemistry / sodium / sodium,1.36 mg/kg/day
same,NEL,rat [7]; systemic / clinical chemistry / sodium / sodium + systemic / pathology microscopic / kidney / adenoma + systemic / in life observation / …,0.274 mg/kg/day
same,LOAEL,rat [7]; [18],200 mg/kg/day
same,NOAEL,rat [7]; [18],58.7 mg/kg/day
same,LOAEL,"rat [8]; group: offspring, systemic / in life observation / body weight / offspring (pup) weight",614 mg/kg/day
same,LEL,rat [8]; [19],614 mg/kg/day
same,NEL,rat [8]; [19],119 mg/kg/day
same,NOAEL,rat [8]; [19],119 mg/kg/day
same,LOAEL,rat [8]; [20],439 mg/kg/day
same,NOAEL,rat [8]; [20],85.6 mg/kg/day
same,LEL,"rat [8]; group: parental, systemic / in life observation / food consumption / food efficiency",119 mg/kg/day
same,NEL,"rat [8]; group: parental, systemic / in life observation / food consumption / food efficiency + systemic / in life observation / body weight / body weight + systemic…",1.93 mg/kg/day

# From EPA's ToxRefDB 2
